{"source": "patent US6864086B2", "about": "“Nitric oxide-scavenging system for culturing oocytes, embryos, or other cells” (Board of Supervisors of Louisiana State University and …, priority 1998, dated 2005)", "key": {"[1]": {"tested_on": "bovine embryos cultured in groups", "experiment": "Example 6: Hb (1 μg/ml) in mBECM-C in presence or absence of cumulus-granulosa cells", "assay_type": "cell-based", "experimental": "(§1) mBECM containing 10 μM β-mercaptoethanol was used to culture embryos, as described in J. Lim et al., “Roles of growth factors in the development of bovine embryos fertilized in vitro and cultured singly in a defined medium,” Reprod. Fertil. Dev., 8, 1199-1205 (1996). To culture individual 8-cell embryos we used mBECM supplemented with 1 ng/ml platelet derived growth factor type AB (PDGF; Upstate Biotechnology Inc., Lake Placid, N.Y.), 1 ng/ml transforming growth factor-β (TGF; R & D System, Minneapolis, Minn.), 50 ng/ml arachidonic acid (AA; Cayman Chemical Co., Ann Arbor, Mich.), 100 μM glutathione (GSH; Sigma Co.) and 1 mg/ml polyvinyl alcohol (PVA) (mBECM-S). mBECM to which 10% (v/v) FBS was added (mBECM-C) was used for co-culturing inseminated zygotes with CGs and for producing 8-cell embryos. Osmolarity of the medium was maintained within the range of 265-290 mOsm.\n(§2) The bovine cumulus-oocyte complexes (COCs) used were collected in Madison, Wis. (BOMED, Inc.), and were shipped in 2-ml of maturation medium in a battery powered incubator via overnight express mail service. Oocytes matured during transit and arrived within 24 h after exposure to maturation medium, pre-equilibrated at 39° C. in 5% CO2 in air. At 22-24 h after exposure to the medium, the COCs were inseminated in vitro as described in J. Lim et al., “Intracytoplasmic glutathione concentration and the role of β-mercaptoethanol in preimplantation development of bovine embryos,” Theriogenology, 46, 429-439 (1996). At 18 h post-insemination, COCs were cultured in groups (30-35 embryos) in a 4-well multidish (Nunc, Roskilde, Denmark) containing 0.8-ml of mBECM-C. Embryos were dislodged from CGs at 36-48 h post-insemination.\n(§3) In Example 1, embryos (83-85 per group) collected 18 h post-insemination were cultured in mBECM-C, to which 0, 0.008, or 0.04 mM SNP was added at 18 or 60 h post-insemination. In Example 2, 8-cell embryos (80 per group) were produced in a co-culture system containing CGs and mBECM-C, and then beginning at 60 h post-insemination were cultured singly in a defined culture medium (mBECM-S), to which 0, 0.0016, 0.008, or 0.04 mM of SNP (S-0501, Sigma Co.) was added. In Example 3 embryos, either uncleaved (n=99) or developed to the 2-cell stage (90), were collected 48 h post-insemination; and cleaved embryos, either developed to the morula stage (69) or degenerate (63) were collected 144 h post-insemination. NO metabolites were then measured in the embryos. In Example 4, three groups of 95 zygotes each were co-cultured with CGs in mBECM-C, to which 0, 1, or 10 μg/ml Hb (bovine, mainly methemoglobin, H-2500, Sigma Co.) was added. […] Inseminated oocytes (104 per group) were co-cultured with CGs in MBECM-C up to 192 h post-insemination; and Hb (1 μg/ml) was added to the medium at 18, 60, or 144 h post-insemination. In Example 6, inseminated oocytes (93 per group) were cultured in the presence or absence of CGs in mBECM-C to which either 0 or 1 μg/ml Hb was added. In Example 7, 8-cell embryos (100 per group), obtained after culture in mBECM-C supplemented with Hb (1 μg/ml), were cultured singly in mBECM-S, with or without Hb.\nOocytes or 8-cell embryos were randomly and equally allocated to each treatment group. In Examples 1, 2, and 4-7, oocytes or embryos that had developed to the 2-cell, 8-cell, >8-cell, 16-cell morula, and blastocyst stages were individually scored ‘1’ (developed) at 48, 60, 96, 120, 144 and 192 h post-insemination, respectively. […] Sums of the scores in each stage of development were evaluated by analysis of variance (ANOVA) using the general linear model (PROC-GLM) in the SAS program software. In Example 3, concentrations of NO metabolites in embryos were subjected to ANOVA. […] Differences were regarded as statistically significant where P values were less than 0.05."}, "[2]": {"tested_on": "8-cell bovine embryos cultured singly", "experiment": "Example 7: Hb (1 μg/ml) in mBECM-S, 8-cell embryos derived from Hb-containing co-culture, cultured singly", "assay_type": "cell-based", "experimental": "as §1, §2\nas §3, with “In Example 7, 8-cell embryos (100 per group), obtained after culture in mBECM-C supplemented with Hb (1 μg/ml), were cultured singly in mBECM-S, with or without Hb.” left out\nOocytes or 8-cell embryos were randomly and equally allocated to each treatment group. In Examples 1, 2, and 4-7, oocytes or embryos that had developed to the 2-cell, 8-cell, >8-cell, 16-cell morula, and blastocyst stages were individually scored ‘1’ (developed) at 48, 60, 96, 120, 144 and 192 h post-insemination, respectively. […] Sums of the scores in each stage of development were evaluated by analysis of variance (ANOVA) using the general linear model (PROC-GLM) in the SAS program software. […]"}}, "note": "“And” between values parts separate entries of the source, which are not always exact repeats. Equal values may be shown once. Marks after values point to notes of the source that are not given here.", "data": [{"substance": "hemoglobin [Hb]", "values": [{"measurement": "Percent of Embryos Developed to 2-cell", "setting": "[1]; Hb 1 μg/ml + CG", "result": 77, "unit": "%"}, {"measurement": "Percent of Embryos Developed to 8-cell", "setting": "[1]; Hb 1 μg/ml + CG", "result": 55, "unit": "%"}, {"measurement": "Percent of Embryos Developed to 16-cell", "setting": "[1]; Hb 1 μg/ml + CG", "result": "51% and 51^b %"}, {"measurement": "Percent of Embryos Developed to Blastocyst", "setting": "[1]; Hb 1 μg/ml + CG", "result": "33% and 33^b %"}, {"measurement": "Percent of Embryos Developed to Morula", "setting": "[1]; Hb 1 μg/ml + CG", "result": "40% and 40^b %"}, {"measurement": "Percent of Embryos Developed to 2-cell", "setting": "[1]; Hb 1 μg/ml only, absence of CG", "result": 73, "unit": "%"}, {"measurement": "Percent of Embryos Developed to 8-cell", "setting": "[1]; Hb 1 μg/ml only, absence of CG", "result": 52, "unit": "%"}, {"measurement": "Percent of Embryos Developed to 16-cell", "setting": "[1]; Hb 1 μg/ml only, absence of CG", "result": "34^a %"}, {"measurement": "Percent of Embryos Developed to Blastocyst", "setting": "[1]; Hb 1 μg/ml only, absence of CG", "result": "19^a %"}, {"measurement": "Percent of Embryos Developed to Morula", "setting": "[1]; Hb 1 μg/ml only, absence of CG", "result": "27^ab %"}, {"measurement": "promotion of pre-hatching development of embryos", "setting": "[1]; Hb 1 μg/ml, cultured in the absence of CG", "result": "not seen to promote"}, {"measurement": "Number of embryos developed to >8-cell", "setting": "[2]; Hb 1 μg/ml present in mBECM-S, 100 8-cell embryos, examined 96 h", "result": 68}, {"measurement": "Number of embryos developed to 16-cell", "setting": "[2]; Hb 1 μg/ml present in mBECM-S, 100 8-cell embryos, examined 120 h", "result": 44}, {"measurement": "Number of embryos developed to Morula", "setting": "[2]; Hb 1 μg/ml present in mBECM-S, 100 8-cell embryos, examined 144 h", "result": 26}, {"measurement": "Number of embryos developed to Blastocyst", "setting": "[2]; Hb 1 μg/ml present in mBECM-S, 100 8-cell embryos, examined 192 h", "result": 8}, {"measurement": "effect on proportions of 8-cell embryos developing to each embryonic stage", "setting": "[2]; Hb added to mBECM-S, P>0.09", "result": "no significant effect"}]}]}
